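The compound was tested at five concentrations on cells cultured in 96-well plates, with a 48-hour exposure period. The concentration for 50% growth inhibition is given as GI50.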 Active and inactive are the calls of the source. Cut-off read from the data, not from the text of the source: active = GI50 up to about 1.1 µM and inactive = higher.
Assays:
Test in all cases: NCI-60 cell line screen, 48 h
RXF 393 = test system: RXF 393
SK-OV-3 = test system: SK-OV-3
OVCAR-8 = test system: OVCAR-8
CAKI-1 = test system: CAKI-1
SK-MEL-28 = test system: SK-MEL-28
ACHN = test system: ACHN
CCRF-CEM = test system: CCRF-CEM
SF-268 = test system: SF-268
IGROV-1 = test system: IGROV-1
Malme-3M = test system: Malme-3M
TK-10 = test system: TK-10
RPMI-8226 = test system: RPMI-8226
U-251 = test system: U-251
M14 = test system: M14
HCT-15 = test system: HCT-15
SF-295 = test system: SF-295
HOP-62 = test system: HOP-62
OVCAR-5 = test system: OVCAR-5

C/C(=C\CC/C=C(\C)CC/C=C(\C)CCC1SC1(C)C)CC/C=C(\C)CCC1OC1(C)C (configuration not stated)
GI50 (RXF 393): 89.7 µM (inactive)
GI50 (SK-OV-3): > 100 µM (inactive)
GI50 (OVCAR-8): > 100 µM (inactive)
GI50 (CAKI-1): > 100 µM (inactive)
GI50 (SK-MEL-28): > 100 µM (inactive)
GI50 (ACHN): > 100 µM (inactive)
GI50 (CCRF-CEM): > 100 µM (inactive)
GI50 (SF-268): > 100 µM (inactive)
GI50 (IGROV-1): > 100 µM (inactive)
GI50 (Malme-3M): > 100 µM (inactive)
GI50 (TK-10): > 100 µM (inactive)
GI50 (RPMI-8226): > 100 µM (inactive)
GI50 (U-251): > 100 µM (inactive)
GI50 (M14): > 100 µM (inactive)
GI50 (HCT-15): > 100 µM
GI50 (SF-295): > 100 µM (inactive)

Cc1cn(C2CC(OC3CCCCO3)C(CO)O2)c(=O)[nH]c1=O (configuration not stated)
GI50 (HOP-62): > 100 µM (inactive)
GI50 (OVCAR-5): > 100 µM (inactive)
GI50 (RXF 393): > 100 µM (inactive)
GI50 (SK-OV-3): > 100 µM (inactive)
GI50 (OVCAR-8): > 100 µM (inactive)
GI50 (SK-MEL-28): > 100 µM (inactive)
GI50 (ACHN): > 100 µM (inactive)
GI50 (CCRF-CEM): > 100 µM (inactive)
GI50 (SF-268): > 100 µM (inactive)
GI50 (IGROV-1): > 100 µM (inactive)
GI50 (Malme-3M): > 100 µM (inactive)
GI50 (TK-10): > 100 µM (inactive)
GI50 (RPMI-8226): > 100 µM (inactive)
GI50 (U-251): > 100 µM (inactive)
GI50 (M14): > 100 µM (inactive)
GI50 (HCT-15): > 100 µM
GI50 (SF-295): > 100 µM (inactive)

CN(C)CC1CCC/C1=N\O (configuration not stated)
GI50 (HOP-62): > 100 µM (inactive)
GI50 (OVCAR-5): > 100 µM (inactive)
GI50 (RXF 393): > 100 µM (inactive)
GI50 (SK-OV-3): > 100 µM (inactive)
GI50 (OVCAR-8): > 100 µM (inactive)
GI50 (CAKI-1): > 100 µM (inactive)
GI50 (SK-MEL-28): > 100 µM (inactive)
GI50 (ACHN): > 100 µM (inactive)
GI50 (CCRF-CEM): > 100 µM (inactive)
GI50 (SF-268): > 100 µM (inactive)
GI50 (IGROV-1): > 100 µM (inactive)
GI50 (TK-10): > 100 µM (inactive)
GI50 (RPMI-8226): > 100 µM (inactive)
GI50 (U-251): > 100 µM (inactive)
GI50 (M14): > 100 µM (inactive)
GI50 (HCT-15): > 100 µM
GI50 (SF-295): > 100 µM (inactive)

CNC(=S)NC1CCCCC1NC(=S)NC (configuration not stated)
GI50 (HOP-62): > 100 µM (inactive)
GI50 (OVCAR-5): > 100 µM (inactive)
GI50 (SK-OV-3): > 100 µM (inactive)
GI50 (OVCAR-8): > 100 µM (inactive)
GI50 (CAKI-1): > 100 µM (inactive)
GI50 (SK-MEL-28): > 100 µM (inactive)
GI50 (ACHN): > 100 µM (inactive)
GI50 (CCRF-CEM): > 100 µM (inactive)
GI50 (SF-268): > 100 µM (inactive)
GI50 (IGROV-1): > 100 µM (inactive)
GI50 (Malme-3M): > 100 µM (inactive)
GI50 (RPMI-8226): > 100 µM (inactive)
GI50 (U-251): > 100 µM (inactive)
GI50 (M14): > 100 µM (inactive)
GI50 (HCT-15): > 100 µM
GI50 (SF-295): > 100 µM (inactive)

O=C(O)/C(Cl)=C(\Cl)C(=O)NC1C2CC3CC(C2)CC1C3 (configuration not stated)
GI50 (HOP-62): > 100 µM (inactive)
GI50 (OVCAR-5): > 100 µM (inactive)
GI50 (SK-OV-3): > 100 µM (inactive)
GI50 (OVCAR-8): > 100 µM (inactive)
GI50 (CAKI-1): > 100 µM (inactive)
GI50 (SK-MEL-28): > 100 µM (inactive)
GI50 (ACHN): > 100 µM (inactive)
GI50 (CCRF-CEM): > 100 µM (inactive)
GI50 (SF-268): > 100 µM (inactive)
GI50 (IGROV-1): > 100 µM (inactive)
GI50 (Malme-3M): > 100 µM (inactive)
GI50 (RPMI-8226): > 100 µM (inactive)
GI50 (U-251): > 100 µM (inactive)
GI50 (M14): > 100 µM (inactive)
GI50 (HCT-15): > 100 µM
GI50 (SF-295): > 100 µM (inactive)

Cc1nccc2c1cnc1ccnn12
GI50 (HOP-62): > 100 µM (inactive)
GI50 (OVCAR-5): > 100 µM (inactive)
GI50 (RXF 393): > 100 µM (inactive)
GI50 (SK-OV-3): > 100 µM (inactive)
GI50 (OVCAR-8): > 100 µM (inactive)
GI50 (CAKI-1): > 100 µM (inactive)
GI50 (SK-MEL-28): > 100 µM (inactive)
GI50 (ACHN): > 100 µM (inactive)
GI50 (CCRF-CEM): > 100 µM (inactive)
GI50 (SF-268): > 100 µM (inactive)
GI50 (IGROV-1): > 100 µM (inactive)
GI50 (Malme-3M): > 100 µM (inactive)
GI50 (TK-10): > 100 µM (inactive)
GI50 (RPMI-8226): > 100 µM (inactive)
GI50 (U-251): > 100 µM (inactive)
GI50 (M14): > 100 µM (inactive)
GI50 (HCT-15): > 100 µM

N#CC(C(=O)/C(=N\NC(N)=O)C(C#N)c1ccc(Cl)cc1)c1ccc(Cl)cc1 (configuration not stated)
GI50 (HOP-62): > 100 µM (inactive)
GI50 (OVCAR-5): > 100 µM (inactive)
GI50 (RXF 393): > 100 µM (inactive)
GI50 (SK-OV-3): > 100 µM (inactive)
GI50 (OVCAR-8): > 100 µM (inactive)
GI50 (SK-MEL-28): > 100 µM (inactive)
GI50 (ACHN): > 100 µM (inactive)
GI50 (CCRF-CEM): > 100 µM (inactive)
GI50 (SF-268): > 100 µM (inactive)
GI50 (IGROV-1): > 100 µM (inactive)
GI50 (Malme-3M): > 100 µM (inactive)
GI50 (RPMI-8226): > 100 µM (inactive)
GI50 (U-251): > 100 µM (inactive)
GI50 (M14): > 100 µM (inactive)
GI50 (HCT-15): > 100 µM
GI50 (SF-295): > 100 µM (inactive)

CC12CC3C(CC1SCC(=O)O2)C3(C)C (configuration not stated)
GI50 (OVCAR-5): > 100 µM (inactive)
GI50 (SK-OV-3): > 100 µM (inactive)
GI50 (OVCAR-8): > 100 µM (inactive)
GI50 (SK-MEL-28): > 100 µM (inactive)
GI50 (ACHN): > 100 µM (inactive)
GI50 (CCRF-CEM): > 100 µM (inactive)
GI50 (SF-268): > 100 µM (inactive)
GI50 (IGROV-1): > 100 µM (inactive)
GI50 (Malme-3M): > 100 µM (inactive)
GI50 (TK-10): > 100 µM (inactive)
GI50 (RPMI-8226): > 100 µM (inactive)
GI50 (U-251): > 100 µM (inactive)
GI50 (M14): > 100 µM (inactive)
GI50 (HCT-15): > 100 µM
GI50 (SF-295): > 100 µM (inactive)

CC(=O)OC12c3ccccc3C1CCCCCC21OCCCO1 (configuration not stated)
GI50 (HOP-62): > 100 µM (inactive)
GI50 (OVCAR-5): > 100 µM (inactive)
GI50 (RXF 393): > 100 µM (inactive)
GI50 (SK-OV-3): > 100 µM (inactive)
GI50 (OVCAR-8): > 100 µM (inactive)
GI50 (CAKI-1): > 100 µM (inactive)
GI50 (SK-MEL-28): > 100 µM (inactive)
GI50 (ACHN): > 100 µM (inactive)
GI50 (CCRF-CEM): > 100 µM (inactive)
GI50 (SF-268): > 100 µM (inactive)
GI50 (IGROV-1): > 100 µM (inactive)
GI50 (TK-10): > 100 µM (inactive)
GI50 (RPMI-8226): > 100 µM (inactive)
GI50 (U-251): > 100 µM (inactive)
GI50 (M14): > 100 µM (inactive)
GI50 (HCT-15): > 100 µM
GI50 (SF-295): > 100 µM (inactive)
